Tests used:
[1] = system: HIF1a protein in H9c2 rat cardiomyocytes; test: Cell-based HIF-alpha stabilization assay (inhibition of PHD in cells); conditions: 24 hrs compound incubation, HIF1a protein by ELISA; for EC50: Rattus norvegicus, H9c2, 24 h, read-out: Inhibition of PHD in cells (pEC50) (converted)
How it was run: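 HIF1a stabilization was measured by ELISA on lysates of H9c2 rat cardiomyocytes after 24 h exposure to 11 serial compound concentrations, expressed relative to the desferrioxamine maximum. Curve fits gave EC50. EC50pos denotes the concentration producing half the desferrioxamine maximal response.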

[2] = biological target: PHD2 enzyme (residues 181-417) (Homo sapiens (Human), UniProt Q9GZT9); test: Inhibition of PHD enzyme (LC/MS peptide hydroxylation assay); type: biochemical; conditions: PHD2 (residues 181-417) 5 nM, 60 min pre-incubation; -log(IC50), IC50 molar
PHD2 enzyme (residues 181-417), sequence (Q9GZT9 181-417): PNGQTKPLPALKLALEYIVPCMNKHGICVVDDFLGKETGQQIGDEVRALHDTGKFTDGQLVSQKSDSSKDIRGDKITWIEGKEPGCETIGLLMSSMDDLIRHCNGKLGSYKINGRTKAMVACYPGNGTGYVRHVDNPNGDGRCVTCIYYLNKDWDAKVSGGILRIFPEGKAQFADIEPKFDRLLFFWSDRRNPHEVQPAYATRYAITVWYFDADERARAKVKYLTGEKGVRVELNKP
How it was run: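 Hydroxylated peptide quantified by LC/MS after 60 min turnover of 1 uM biotinylated peptide with 2 uM 2-oxoglutarate and 1 mM ascorbate, stopped by excess tight-binding inhibitor. Beforehand, 5 nM enzyme and compound were preincubated 60 min at RT, pH 7.3 HEPES/KCl/TCEP/FeCl2/BSA buffer. Values as pIC50 (−log molar IC50).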

SMILES | Inhibition of PHD in cells (pEC50) [1] | PHD Inhibition (pIC50) [2] | EC50 [1] [nM]
CCCN1CCN(C(=O)c2ccc(-n3ncc(-c4ccc(C#N)cc4C)c3O)nc2)CC1 [Example 283, 4-(5-hydroxy-1-(5-(4-propylpiperazine-1-carbonyl)pyridin-2-yl)-1H-pyrazol-4-yl)-3-methylbenzonitrile] | 5.72 | 8.60 | –
Cc1cc(C#N)ccc1-c1cnn(-c2ccc(C(=O)N3CCC(CN(C)C)C3)cn2)c1O (stereo not drawn) [Example 349, 4-(1-(5-(3-((dimethylamino)methyl)pyrrolidine-1-carbonyl)pyridin-2-yl)-5-hydroxy-1H-pyrazol-4-yl)-3-methylbenzonitrile] | – | 7.77 | 479
CCCNC(=O)c1ccc(-n2ncc(-c3ccnc(OC)c3)c2O)nc1 [Example 8, 6-(5-hydroxy-4-(2-methoxypyridin-4-yl)-1H-pyrazol-1-yl)-N-propylnicotinamide] | – | 7.03 | 603
Cc1cc(C#N)ccc1-c1cnn(-c2ccc(C(=O)N3CCC(CN(C)C)CC3)cn2)c1O [Example 419, 4-(1-(5-(4-((dimethylamino)methyl)piperidine-1-carbonyl)pyridin-2-yl)-5-hydroxy-1H-pyrazol-4-yl)-3-methylbenzonitrile] | – | 7.98 | 631
COCCCNC(=O)c1ccc(-n2ncc(-c3c(C)cc(C#N)cc3F)c2O)nc1 [Example 404, 6-(4-(4-cyano-2-fluoro-6-methylphenyl)-5-hydroxy-1H-pyrazol-1-yl)-N-(3-methoxypropyl)nicotinamide] | – | 8.01 | 631
C[C@H](NC(=O)c1ccc(-n2ncc(-c3ccc(C#N)cc3)c2O)nc1)C1CCOCC1 [Example 173, (S)-6-(4-(4-cyanophenyl)-5-hydroxy-1H-pyrazol-1-yl)-N-(1-(tetrahydro-2H-pyran-4-yl)ethyl)nicotinamide] | – | 7.21 | 1100
Cc1cc(-n2ncc(-c3ccc(C#N)cc3)c2O)ncc1C(=O)N[C@H]1CCOC1 [Example 277, (S)-6-(4-(4-cyanophenyl)-5-hydroxy-1H-pyrazol-1-yl)-4-methyl-N-(tetrahydrofuran-3-yl)nicotinamide] | – | 6.89 | 7080
COc1cc(-c2cnn(-c3ccc(C(=O)NCCC4CCCN4C)cn3)c2O)ccn1 (stereo not drawn) [Example 31, 6-(5-hydroxy-4-(2-methoxypyridin-4-yl)-1H-pyrazol-1-yl)-N-(2-(1-methylpyrrolidin-2-yl)ethyl)nicotinamide] | 6.00 | 7.5 | –
CCNC(=O)c1ccc(-n2ncc(-c3ccnc(OC)c3)c2O)nc1 [Example 34, N-ethyl-6-(5-hydroxy-4-(2-methoxypyridin-4-yl)-1H-pyrazol-1-yl)nicotinamide] | – | 8 | 513
Cc1cc(C#N)ccc1-c1cnn(-c2ccc(C(=O)NCC3CCCCO3)cn2)c1O (stereo not drawn) [Example 142, 6-(4-(4-cyano-2-methylphenyl)-5-hydroxy-1H-pyrazol-1-yl)-N-((tetrahydro-2H-pyran-2-yl)methyl)nicotinamide] | – | 8.3 | 85.1
COCCCNC(=O)c1ccc(-n2ncc(-c3cc(F)c(C#N)cc3C)c2O)nc1 [Example 405, 6-(4-(4-cyano-5-fluoro-2-methylphenyl)-5-hydroxy-1H-pyrazol-1-yl)-N-(3-methoxypropyl)nicotinamide] | – | 8.48 | 324
COCC[C@H](C)NC(=O)c1ccc(-n2ncc(-c3ccc(C#N)cc3C)c2O)nc1 [Example 360, (S)-6-(4-(4-cyano-2-methylphenyl)-5-hydroxy-1H-pyrazol-1-yl)-N-(4-methoxybutan-2-yl)nicotinamide] | – | 8.60 | 407
